Measured values: patent US8431708B2, “Fluorescent carbazole compounds for cancer diagnosis” (Academia Sinica, priority 2009, dated 2013)

System: MRC-5 human lung normal fibroblast cells
Experiment: Fluorescence intensity as a function of incubation time in normal cells
Type: cell-based
Settings: MRC-5 cells
Method: The fluorescence intensity of 3,6-bis(1-methyl-4-vinylpyridinium)carbazole diiode (BMVC) described in Kang et al., J. Chin. Chem. Soc., 2005, 52, 1069-1072 and Compound 3 were measured in CL1-0 lung cancer cells and MRC-5 human lung normal fibroblast cells as a function of incubation time.

**Q.** With `C[n+]1ccc(C=Cc2ccc3[nH]c4ccc(C=Cc5cc[n+](C)cc5)cc4c3c2)cc1.[I-].[I-]` [BMVC, 3,6-bis(1-methyl-4-vinylpyridinium)carbazole diiode] as the compound, how does the “fluorescence in normal cells” value read?
**A.** The value was “weak fluorescence in normal cells”.
